Laboratory results from PMC9079959, “Substituted spirooxindole derivatives as potent anticancer agents through inhibition of phosphodiesterase 1” (RSC Advances, 2018).
“And” between values parts separate entries of the source, which are not always exact repeats. Equal values may be shown once. Read-outs that look alike come from different tables or passages of the source.

How the values were obtained:
[1] = tested on: phosphodiesterase 1; type: biochemical, snake; conditions: at 2 μM
Method: A phosphodiesterase I inhibition assay was performed using snake venom according to a previously reported method with minute variations. Briefly, 33 mM Tris–HCl buffer of pH 8.8 (97 μl), 30 mM magnesium acetate with an enzyme concentration of 0.000742 U well^−1 and 0.33 mM bis-(p-nitrophenyl) phosphate (Sigma N-3002, 60 μl) as substrate were taken. […] After a pre-incubation period of 30 min, the enzyme with the test samples was observed spectrophotometrically for enzyme activity on a microtiter plate reader at 37 °C by following the rate of change in OD min^−1 at 410 nm of the p-nitrophenol released from p-nitrophenyl phosphate. All assays were processed in triplicate.[47]

[2] = tested on: HepG2 cells; assay: MTT cytotoxicity assay, hepatocellular carcinoma HepG2; type: cell-based; conditions: Homo sapiens, HepG2, MTT, 48 h
Method: (§1) The cytotoxic activity of the compounds was tested against different mammalian cancer cells, prostate carcinoma cells (PC-3), hepatocellular carcinoma (HepG2) and colon cancer cells (HCT-116). African green monkey kidney cells (Vero-B) were used as normal cells to study the selectivity towards the cancer cells. The cell lines were obtained from the American Type Culture Collection (ATCC). The cells were cultivated at 37 °C and 10% CO2 in DMEM (Lonza, Germany) medium supplemented with 10% fetal bovine serum (Lonza, Germany), 100 IU ml^−1 penicillin and 100 μg ml^−1 streptomycin (Lonza, Germany). […] The spirooxindole derivatives were solubilized in DMSO and stored at −20 °C. The viability of the cells was quantified using 3-(4,5-dimethylthiazol-2-yl)-2,5-diphenyl tetrazolium bromide (MTT), which measures the activity of mitochondrial succinate dehydrogenase in viable cells.[45,46]
(§2) The cells were seeded in 96-well plates at a concentration of 5 × 10^4 cells per ml (100 μl per well). […] DMSO was used as a negative control (0.1%). The cells were incubated for 48 h. After that, 15 μl of MTT (5 mg ml^−1 in PBS) was added to each well and incubated for another 4 h. The formazan crystals were solubilized by 100 μl of acidified SDS solution (10% SDS/0.01 N HCl in PBS). The absorbance was measured after 14 h of incubation at 37 °C and under 5% CO2 at 570 nm by using a BioTek microplate reader. Each experiment was repeated 3 times and a standard deviation was calculated (SD±). […] The growth of the cells was monitored and the images were acquired by Gx microscopes (GXMGXD202 Inverted Microscope) at 10× magnification.

[3] = tested on: Vero-B cells; assay: MTT cytotoxicity assay, normal cells Vero-B; type: cell-based, African green monkey; conditions: Chlorocebus sabaeus, Vero B, 48 h
Method: as §1, §2

[4] = tested on: PC-3 cells; assay: MTT cytotoxicity assay, prostate cancer cell line PC-3; type: cell-based; conditions: Homo sapiens, PC-3, MTT, 48 h
Method: as §1, §2

[5] = tested on: HCT-116 cells; assay: MTT cytotoxicity assay, colorectal cancer cell line HCT-116; type: cell-based; conditions: for IC50: Homo sapiens, HCT-116, MTT, 48 h
Method: as §1, §2

Q: For `O=C(c1c[nH]c2ccccc12)[C@@H]1C(c2ccc(Cl)cc2Cl)[C@@H]2CCCN2[C@@]12C(=O)Nc1ccccc12` (stereo partly drawn) [4d, (2′R,3S,7a′S)-1′-(2,4-Dichlorophenyl)-2′-(1H-indole-3-carbonyl)-1′,2′,5′,6′,7′,7a′-hexahydrospiro[indoline-3,3′-pyrrolizin]-2-one], which melting point is on record?
A: 149 to 151 °C

Q: What about the “inhibitory activity against phosphodiesterase enzyme” value [1] of the same compound?
A: 74.2%

Q: And the IC50 ([2]; ± SD of 3 experiments, read-out: HepG2 (IC50))?
A: 2 ± 0.1 µM

Q: What about the IC50 ([2]; read-out: HepG2 (IC50, μg ml^−1)) of the same compound?
A: 1 µg/mL

Q: And the IC50 [3]?
A: 9 µM

Q: And the IC50 ([4]; ± SD of 3 experiments, read-out: PC-3 (IC50))?
A: 2 ± 0.125 µM

Q: What about the IC50 ([4]; read-out: PC-3 (IC50, μg ml^−1)) of the same compound?
A: 1 µg/mL

Q: What about the IC50 ([5]; ± SD of 3 experiments, read-out: HCT-116 (IC50)) of the same compound?
A: 9 ± 0.6 µM

Q: And the IC50 ([5]; read-out: HCT-116 (IC50, μg ml^−1))?
A: 4.6 µg/mL

Q: And the “SI (selectivity index)” value ([5]; IC50 normal (VERO-B) / IC50 cancer (HCT-116))?
A: > 1 and 1
